According to patent US7585873B2, “1-(aminoalkyl)-3-sulfonylazaindoles as 5-hydroxytryptamine-6 ligands” (Wyeth, priority 2002, dated 2009):
pKi: −log10 of the molar value. Structures can show the parent of a compound that is named as a salt. Where two headings read alike, the source gives them in different places.

Tests used:
[1] = target: T1, human cloned 5-HT6 receptors (Homo sapiens, UniProt P50406); assay: 5-HT6 binding affinity, [3H]-LSD displacement on membranes of Hela cells expressing human cloned 5-HT6 receptors
T1 construct: expressed in transfected cells; host or cells: Hela cells
T1 sequence (P50406 whole entry): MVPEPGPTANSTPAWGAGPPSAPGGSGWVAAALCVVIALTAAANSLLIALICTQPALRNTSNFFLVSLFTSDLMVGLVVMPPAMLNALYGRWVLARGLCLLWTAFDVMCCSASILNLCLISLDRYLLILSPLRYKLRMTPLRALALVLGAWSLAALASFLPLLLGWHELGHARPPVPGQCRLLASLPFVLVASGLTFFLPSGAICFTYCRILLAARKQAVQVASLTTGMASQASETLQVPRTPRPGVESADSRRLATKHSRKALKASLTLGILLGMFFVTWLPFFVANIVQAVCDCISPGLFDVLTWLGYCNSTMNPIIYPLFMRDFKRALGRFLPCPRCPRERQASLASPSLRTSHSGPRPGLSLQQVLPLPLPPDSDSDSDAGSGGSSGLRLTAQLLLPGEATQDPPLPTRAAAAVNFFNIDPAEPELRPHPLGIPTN

[2] = [3H]-LSD 3.0 nM, Hela cell membranes, 120 min at room temperature, read-out: 5-HT6 Binding Ki

SMILES | melting point | pKi [1, 2] | other results
CN(C)CCn1cc(S(=O)(=O)c2ccc(F)cc2)c2cccnc21 (as salt: hydrochloride) [Example 13] | 189 to 192 °C |  | 
CN(C)CCn1cc(S(=O)(=O)c2cccc(Cl)c2)c2cccnc21 (as salt: hydrochloride) [Example 14] | 182 to 186 °C |  | 
CN(C)CCn1cc(S(=O)(=O)c2cccc3ccccc23)c2cccnc21 (as salt: hydrochloride) [Example 15] | 203 to 206 °C |  | 
NCCn1cc(S(=O)(=O)c2cccc3ccccc23)c2cccnc21 (as salt: hydrochloride) [Example 16] | 148 to 170 °C |  | 
NCCn1cc(S(=O)(=O)c2cccc(F)c2)c2cccnc21 (as salt: hydrochloride) [Example 17] | 202 to 204 °C |  | 
CN(C)CCn1cc(S(=O)(=O)c2cccc(C(F)(F)F)c2)c2cccnc21 (as salt: hydrochloride) [Example 19] | 108 to 112 °C |  | 
CN(C)CCn1cc(S(=O)(=O)c2ccccc2C(F)(F)F)c2cccnc21 (as salt: hydrochloride) [Example 20] | 196 to 198 °C |  | 
NCCn1cc(S(=O)(=O)c2ccccc2C(F)(F)F)c2cccnc21 (as salt: hydrochloride) [Example 21] | 182 to 185 °C |  | 
NCCn1cc(S(=O)(=O)c2cccc(C(F)(F)F)c2)c2cccnc21 (as salt: hydrochloride) [Example 22] | 179 to 183 °C |  | 
NCCn1cc(S(=O)(=O)c2cccs2)c2cccnc21 (as salt: hydrochloride) [Example 23] | 202 to 204 °C |  | 
NCCn1cc(S(=O)(=O)c2cc(Cl)cc(Cl)c2)c2cccnc21 (as salt: hydrochloride) [Example 24] | 136 to 140 °C |  | 
CN(C)CCn1cc(S(=O)(=O)c2cccs2)c2cccnc21 (as salt: hydrochloride) [Example 25] | 212 to 216 °C |  | 
CN(C)CCn1cc(S(=O)(=O)c2cc(Cl)cc(Cl)c2)c2cccnc21 (as salt: hydrochloride) [Example 26] | 227 to 232 °C |  | 
O=S(=O)(c1cccc(F)c1)c1cn(CCN2CCCCC2)c2ncccc12 (as salt: hydrochloride) [Example 29] | 197 to 199 °C |  | 
O=S(=O)(c1cccc(F)c1)c1cn(CCN2CCOCC2)c2ncccc12 (as salt: hydrochloride) [Example 30] | 127 to 129 °C |  | 
CN(C)CCn1cc(S(=O)(=O)c2ccc(Cl)s2)c2cccnc21 (as salt: hydrochloride) [Example 33] | 169 to 171 °C |  | 
CN(C)CCn1cc(S(=O)(=O)c2c(Cl)nc3sccn23)c2cccnc21 (as salt: hydrochloride) [Example 34] | 180 to 182 °C |  | 
CN(C)CCn1cc(S(=O)(=O)c2cc(Cl)ccc2Cl)c2cccnc21 (as salt: hydrochloride) [Example 38] | 230 to 232 °C |  | 
Cc1c(S(=O)(=O)c2cccc(F)c2)c2cccnc2n1CCN (as salt: hydrochloride) [Example 66] | 239 to 241 °C |  | 
NCCn1cc(S(=O)(=O)c2ccc3ccccc3c2)c2cccnc21 (as salt: hydrochloride) [Example 67] | 233 to 238 °C |  | 
CC(CN)n1cc(S(=O)(=O)c2ccccc2)c2cccnc21 (stereo not drawn) (as salt: hydrochloride) [Example 68] | 180 to 185 °C |  | 
NCCn1cc(S(=O)(=O)c2ccccc2)c2cccnc21 [Example 5, 2-[3-(Phenylsulfonyl)-1H-pyrrolo[2,3-b]pyridin-1-yl]ethylamine dihydrochloride] |  | 8.22 | 
CN(C)CCn1cc(S(=O)(=O)c2ccccc2)c2cccnc21 [Example 6, N,N-Dimethyl-N-{2-[3-(phenylsulfonyl)-1H-pyrrolo[2,3-b]pyridin-1-yl]ethyl}amine dihydrochloride] |  |  | pKi ([1]; read-out: 5-HT6 Binding Ki): 7.64

SMILES | melting point | pKi [1, 2] | other results
Cc1ccc(S(=O)(=O)c2cn(CCN)c3ncccc23)cc1 [Example 7, 2-{3-[(4-Methylphenyl)sulfonyl]-1H-pyrrolo[2,3-b]pyridin-1-yl}ethylamine dihydrochloride] |  | 8.05 | 
NCCn1cc(S(=O)(=O)c2ccc(F)cc2)c2cccnc21 [Example 11, 2-{3-[(4-Fluorophenyl)sulfonyl]-1H-pyrrolo[2,3-b]pyridin-1yl}ethylamine hydrochloride] |  |  | pKi ([1]; read-out: 5-HT6 Binding Ki): 7.66
NCCn1cc(S(=O)(=O)c2cccc(Cl)c2)c2cccnc21 [Example 12, 2-{3-[(3-Chlorophenyl)sulfonyl]-1H-pyrrolo[2,3-b]pyridin-1-yl}ethylamine dihydrochloride] |  |  | pKi [1]: 7.70
CN(C)CCn1cc(S(=O)(=O)c2ccc(F)cc2)c2cccnc21 [Example 13] |  | 7.30 | 
CN(C)CCn1cc(S(=O)(=O)c2cccc(Cl)c2)c2cccnc21 [Example 14] |  | 8.70 | 
CN(C)CCn1cc(S(=O)(=O)c2cccc3ccccc23)c2cccnc21 [Example 15] |  |  | pKi ([1]; read-out: 5-HT6 Binding Ki): 9.00
NCCn1cc(S(=O)(=O)c2cccc3ccccc23)c2cccnc21 [Example 16] |  | 8.70 | 
NCCn1cc(S(=O)(=O)c2cccc(F)c2)c2cccnc21 [Example 17] |  | 8.22 | 
Cc1c(S(=O)(=O)c2ccccc2)c2cccnc2n1CCN [Example 18] |  | 8.30 | 
CN(C)CCn1cc(S(=O)(=O)c2cccc(C(F)(F)F)c2)c2cccnc21 [Example 19] |  | 8.30 | 
CN(C)CCn1cc(S(=O)(=O)c2ccccc2C(F)(F)F)c2cccnc21 [Example 20] |  | 7.96 | 
NCCn1cc(S(=O)(=O)c2ccccc2C(F)(F)F)c2cccnc21 [Example 21] |  | 8.70 | 
NCCn1cc(S(=O)(=O)c2cccc(C(F)(F)F)c2)c2cccnc21 [Example 22] |  | 8.70 | 
NCCn1cc(S(=O)(=O)c2cccs2)c2cccnc21 [Example 23] |  | 8.05 | 
NCCn1cc(S(=O)(=O)c2cc(Cl)cc(Cl)c2)c2cccnc21 [Example 24] |  | 8.52 | 
CN(C)CCn1cc(S(=O)(=O)c2cccs2)c2cccnc21 [Example 25] |  | 7.82 | 
CN(C)CCn1cc(S(=O)(=O)c2cc(Cl)cc(Cl)c2)c2cccnc21 [Example 26] |  | 8.40 | 
O=S(=O)(c1cccc(Cl)c1)c1cn(CCN2CCCC2)c2ncccc12 [Example 27] |  | 7.35 | 
O=S(=O)(c1cccc(F)c1)c1cn(CCN2CCCC2)c2ncccc12 [Example 28] |  | 7.06 | 
O=S(=O)(c1cccc(F)c1)c1cn(CCN2CCCCC2)c2ncccc12 [Example 29] |  | 6.80 | 
O=S(=O)(c1cccc(F)c1)c1cn(CCN2CCOCC2)c2ncccc12 [Example 30] |  | 6.39 | 
CN(C)CCn1cc(S(=O)(=O)c2ccc(Cl)s2)c2cccnc21 [Example 33] |  | 8.40 | 
CN(C)CCn1cc(S(=O)(=O)c2c(Cl)nc3sccn23)c2cccnc21 [Example 34] |  | 8.70 | 

SMILES | melting point | pKi [1, 2] | other results
CCN(CC)CCn1cc(S(=O)(=O)c2cccc(Cl)c2)c2cccnc21 [Example 35] | 74 to 76 °C | 7.70 | 
Cc1c(S(=O)(=O)c2cn(CCN(C)C)c3ncccc23)sc2ccc(Cl)cc12 [Example 36] | 212 to 215 °C | 6.99 | 
CN(C)CCn1cc(S(=O)(=O)c2c(Cl)cccc2Cl)c2cccnc21 [Example 37] | 220 to 222 °C | 8.05 | 
CN(C)CCn1cc(S(=O)(=O)c2cc(Cl)ccc2Cl)c2cccnc21 [Example 38] |  | 7.92 | 
O=S(=O)(c1cn(CCN(Cc2ccccc2)Cc2ccccc2)c2ncccc12)c1c(Cl)nc2sccn12 [Example 39] | 140 to 145 °C | 6.67 | 
Cc1cccc(S(=O)(=O)c2cn(CCN(C)C)c3ncccc23)c1 [Example 40] | 195 to 197 °C | 8.00 | 
CN(C)CCn1cc(S(=O)(=O)c2ccccc2)c2ccc(Br)nc21 [Example 41] | 182 to 184 °C | 7.39 | 
COc1ccc2c(S(=O)(=O)c3ccccc3)cn(CCN(C)C)c2n1 [Example 42] |  | 7.41 | 
CN(C)CCn1cc(S(=O)(=O)c2cccc(C#N)c2)c2cccnc21 [Example 44] | 148 to 150 °C | 7.20 | 
Cc1c(S(=O)(=O)c2ccc3ccccc3c2)c2cccnc2n1CCN(C)C [Example 45] | 238 to 240 °C | 8.00 | 
CNCCn1cc(S(=O)(=O)c2cccc(Cl)c2)c2cccnc21 [Example 57, N-(2-{3-[(3-Chlorophenyl)sulfonyl]-1H-pyrrolo[2,3-b]pyridin-1-yl}ethyl)-N-methylamine Hydrochloride] |  |  | pKi ([1]; read-out: 5-HT6 Binding Ki): 9.52
CNCCn1cc(S(=O)(=O)c2c(Cl)nc3sccn23)c2cccnc21 [Example 58] | 182 to 186 °C | 9.00 | 
CNCCn1cc(S(=O)(=O)c2cccc(F)c2)c2cccnc21 [Example 59] | 255 to 260 °C |  | pKi ([1]; read-out: 5-HT6 Binding Ki): 9.00
CCNCCn1cc(S(=O)(=O)c2cccc(Cl)c2)c2cccnc21 [Example 60] |  | 8.52 | 
O=S(=O)(c1cn(CCNCc2ccccc2)c2ncccc12)c1c(Cl)nc2sccn12 [Example 61] | 173 to 175 °C | 8.05 | 
CNCCn1cc(S(=O)(=O)c2cccc(C)c2)c2cccnc21 [Example 62] | 244 to 246 °C | 9.00 | 
Cc1c(S(=O)(=O)c2cccc(F)c2)c2cccnc2n1CCN [Example 66] |  | 8.70 | 
NCCn1cc(S(=O)(=O)c2ccc3ccccc3c2)c2cccnc21 [Example 67] |  | 7.62 | 
CC(CN)n1cc(S(=O)(=O)c2ccccc2)c2cccnc21 (stereo not drawn) [Example 68] |  | 7.85 | 
CN(C)CCn1cc(S(=O)(=O)c2cccc(F)c2)c2ncccc21 [Example 77, N,N-Dimethyl-N-(2-{3-[(3-fluorophenyl)sulfonyl]-1H-pyrrolo[3,2-b]pyridin-1-yl}ethyl)amine Dihydrochloride] |  | 6.70 | 
COc1ccc2c(n1)c(S(=O)(=O)c1ccc(Br)cc1)cn2CCN(C)C [Example 78] | 225 to 226 °C | 8.40 | 
COc1ccc2c(n1)c(S(=O)(=O)c1cccc(F)c1)cn2CCN(C)C [Example 79] | 208 to 212 °C | 7.96 | 
COc1ccc2c(n1)c(S(=O)(=O)c1cccc3ccccc13)cn2CCN(C)C [Example 80] | 233 to 235 °C | 8.70 | 
